Tests used:
Assay type in all cases: in vivo, C57BL/6 male mice
[1] = test system: animals with LPS-induced cognitive impairment; experiment: Animals with LPS-induced cognitive impairment: improvement effect in spleen; conditions: LPS-treated mice, 1×10^9 CFU/mouse or sulfasalazine 50 mg/kg once a day for 5 days; for Foxp3 (fold change) / Tbet (fold change) / Tbet/Foxp3: spleen qPCR; for IFN-γ/IL-10 / IL-10 / Interferon (IFN)-γ / NK cell cytoxicity (%) / Phagocytosis (%) / TNF-α / TNF-α/IL-10: spleen
Protocol: (§1) Hippocampus, colon, and spleen tissues were homogenized by adding 1 ml of RIPA buffer (Gibco) containing protease inhibitor cocktail and centrifuged at 4° C., 13000 rpm for 15 min to obtain supernatant. Indicators of this supernatant were measured using an ELISA kit (Ebioscience).
(§2) mRNA was isolated from spleen tissue using the RNA Isolation Kit: RNeasy Mini Kit (QIAGEN), converted to cDNA, and qPCR was performed to measure the expression rates of Tbet, Foxp3, and glyceraldehyde 3-phosphate dehydrogenase (GAPDH). The reaction product was first treated at 95° C. for 30 seconds, followed by 38 cycles of 5 seconds at 95° C. and 30 seconds at 72° C. for analysis.
C57BL/6 male mice (5 weeks old, 19-21 g) were divided (6 mice in each group) and acclimatized to the laboratory for 1 week. To induce intestinal and brain diseases, mice were intraperitoneally administered Escherichia coli-derived LPS (10 μg/kg) once daily for 5 days. […] Experimental animals in the normal group were orally administered with a physiological saline solution, which was used to suspend lactic acid bacteria. The day following the conclusion of sample administration, the experimental animals were sacrificed, and samples from the brain hippocampus, colon, and spleen were collected. In the Hippocampus, inflammatory indicators, such as IFN-γ, TNF-α, and IL-10, were measured using ELISA. In the colon, intestinal length and inflammatory indicators, such as IFN-γ, TNF-α, and IL-10, were measured. In the spleen, Th1 cells and Treg cells were measured by FACS (Fluorescence-Activated Cell Sorting).

[2] = test system: animals with antibiotic-induced gut microbiota imbalance; experiment: Animals with antibiotic (ampicillin)-induced gut microbiota imbalance: improvement effect in spleen; conditions: ampicillin (AP)-treated mice, 1×10^9 CFU/mouse orally once a day for 5 days; for Foxp3 (fold change) / Tbet (fold change) / Tbet/Foxp3: spleen qPCR; for IFN-γ/IL-10 / IL-10 / Interferon (IFN)-γ / NK cell cytoxicity (%) / Phagocytosis (%) / TNF-a/IL-10 / TNF-α: spleen
Protocol: as §1, §2
(§3) C57BL/6 male mice (5 weeks old, 19-21 g) were divided (6 mice in each group) and acclimatized to the laboratory for 1 week. To induce intestinal and brain diseases, the mice were orally administered with ampicillin (AP, 100 mg/kg, dissolved in physiological saline) for 3 days. Meanwhile, the normal group was orally administered with 0.1 ml of physiological saline. […] The day following the conclusion of sample administration, the experimental animals were sacrificed, and samples from the brain hippocampus, colon, and spleen were collected. In the Hippocampus, inflammatory indicators, such as IFN-γ, TNF-α, and IL-10, were measured using ELISA. In the colon, intestinal length and inflammatory indicators, such as IFN-γ, TNF-α, and IL-10, were measured. In the spleen, Th1 cells and Treg cells were measured by FACS (Fluorescence-Activated Cell Sorting), and in feces, endotoxin (LPS) and gut microbial communities were measured.

healthy animal = experiment: Healthy animal: colon parameters; conditions: healthy mice, 1×10^9 CFU/mouse orally once a day for 5 days
Protocol: To 100 mg of colon tissue, 200 μl of 10 mM potassium phosphate buffer (pH 7.0) containing 0.5% hexadecyl trimethyl ammonium bromide was added and homogenized. Then, the supernatant was obtained by centrifugation for 10 minutes at 4° C. and 10,000 g. A volume of 50 μl of the supernatant was added to 0.95 mk of reaction solution (containing 1.6 mM tetramethyl benzidine and 0.1 mM H2O2), reacted at 37° C., and absorbance was monitored over time at 650 nm.
as §1
C57BL/6 male mice (5 weeks old, 19-21 g) were divided (6 mice in each group) and acclimatized to the laboratory for 1 week. The mice were orally administered once a day for 5 days with lactic acid bacteria as a test sample suspended in physiological saline solution at a concentration of 1×10^9 CFU per mouse (NK210 alone (LR): 1×10^9 CFU/mouse, NK219 alone (BL): 1×10^9 CFU/mouse, combined (210+219): 210, 8×10^8 CFU/mouse and 219, 2×10^8 CFU/mouse). […] The day following the conclusion of sample administration, the experimental animals were sacrificed, and samples from the brain hippocampus, colon, and spleen were collected. In the Hippocampus, inflammatory indicators, such as IFN-γ, TNF-α, and IL-10, were measured using ELISA. In the colon, intestinal length and inflammatory indicators, such as IFN-γ, TNF-α, and IL-10, were measured. In the spleen, Th1 cells and Treg cells were measured by FACS (Fluorescence-Activated Cell Sorting).

gut microbiota = experiment: Gut microbiota analysis in animals with ampicillin-induced gut microbiota imbalance (FIG. 1); conditions: feces, ampicillin-treated mice, result in words
Protocol: First, DNA from feces was isolated using the QIAamp DNA stool mini kit (Qiagen, Germany), pyrosequencing was performed by amplifying barcoded primers (V4 region of the bacterial 16S rRNA gene) to generate amplicons, and 16S rDNA was analyzed by Illumina iSeq 100 (San Diego, CA) to analyze occupancy.
as §3

Substance | Foxp3 (fold change) [1] [fold change] | Tbet (fold change) [1] [fold change] | Tbet/Foxp3 [1] | IFN-γ/IL-10 [1] | IL-10 [1] [pg/mg] | Interferon (IFN)-γ [1] [pg/mg] | NK cell cytoxicity (%) [1] [%] | Phagocytosis (%) [1] [%] | TNF-α [1] [pg/mg] | TNF-α/IL-10 [1] | Foxp3 (fold change) [2] [fold change] | Tbet (fold change) [2] [fold change] | Tbet/Foxp3 [2] | IFN-γ/IL-10 [2] | IL-10 [2] [pg/mg] | Interferon (IFN)-γ [2] [pg/mg] | NK cell cytoxicity (%) [2] [%] | Phagocytosis (%) [2] [%] | TNF-a/IL-10 [2] | TNF-α [2] [pg/mg] | further results
Bifidobacterium longum NK219 | 1.32 | 1.27 | 1.05 | 1.32 | 8.71 | 11.29 | 6.93 | 34.55 | 4.00 | 0.47 | 1.66 | 1.03 | 0.74 | 0.81 | 11.35 | 9.12 | 6.47 | 69.91 | 0.40 | 4.32 | Colon (cm) (healthy animal): 5.03 cm; IFN-γ/IL-10 (healthy animal): 1.52; IL-10 (healthy animal): 42.89 pg/mg; Interferon (IFN)-γ (healthy animal): 64.83 pg/mg; MPO activity (healthy animal): 3.53 μUnit/mg; TNF-a/IL-10 (healthy animal): 0.37; TNF-α (healthy animal): 15.73 pg/mg; imbalance in the beta diversity, Proteobacteria, and Bacteroidetes of gut microbiota (gut microbiota): improved to a balanced form
Lactobacillus rhamnosus NK210 | 1.07 | 1.58 | 1.55 | 1.15 | 10.49 | 11.92 | 7.78 | 36.01 | 4.00 | 0.38 | 0.69 | 1.07 | 1.66 | 0.87 | 8.25 | 7.03 | 7.34 | 74.02 | 0.45 | 3.57 | Colon (cm) (healthy animal): 5.12 cm; IFN-γ/IL-10 (healthy animal): 1.40; IL-10 (healthy animal): 39.95 pg/mg; Interferon (IFN)-γ (healthy animal): 55.75 pg/mg; MPO activity (healthy animal): 4.18 μUnit/mg; TNF-a/IL-10 (healthy animal): 0.34; TNF-α (healthy animal): 13.40 pg/mg; imbalance in the beta diversity, Proteobacteria, and Bacteroidetes of gut microbiota (gut microbiota): improved to a balanced form

— US20250009819A1, “NOVEL PROBIOTICS AND USE THEREOF” (PBLBIOLAB CO., LTD., priority 2021, published 2025)
